In ChEMBL document CHEMBL1148997, “Stereochemical considerations in relation to the pharmacological activity of Pterotaberna alkaloids” (J Nat Prod, 1985):
Activity calls are given as the source filed them. No cut-off for these calls is given here.

Tests used:
Ileum [1] = assay: Inhibition of electrically-induced twitch contraction in guinea pig ileum at 3.4 uM; type: functional, tissue-based; settings: Cavia porcellus
Ileum [2] = assay: Inhibition of electrically-induced twitch contraction in guinea pig ileum at 1 ug/ml after 15 mins; type: functional; settings: Cavia porcellus, 0.25 h
Ileum [3] = assay: Anticholinergic effect in guinea pig ileum assessed as inhibition of acetylcholine-induced contraction; type: functional
Ileum [4] = assay: Antihistaminic effect in guinea pig ileum assessed as inhibition of histamine-induced contraction by Schild plot; type: functional, tissue-based; settings: Cavia porcellus, read-out: pA2 (converted)
Ileum [5] = assay: Inhibition of electrically-induced twitch contraction in guinea pig ileum at 3.2 uM; type: functional, tissue-based; settings: Cavia porcellus
Ileum [6] = assay: Inhibition of electrically-induced twitch contraction in guinea pig ileum at 3.4 uM preincubated for 15 mins before addition of naloxone in presence of naloxone; type: functional, tissue-based; settings: Cavia porcellus
Ileum [7] = assay: Inhibition of electrically-induced twitch contraction in guinea pig ileum at 1 uM; type: functional, tissue-based; settings: Cavia porcellus
Ileum [8] = assay: Anticholinergic effect in guinea pig ileum assessed as inhibition of acetylcholine-induced contraction at 1 uM; type: functional, tissue-based; settings: Cavia porcellus
Ileum [9] = assay: Antihistaminic effect in guinea pig ileum assessed as inhibition of histamine-induced contraction; type: functional, Cavia porcellus
Ileum [10] = assay: Anticholinergic effect in guinea pig ileum assessed as inhibition of acetylcholine-induced contraction at 3.4 uM; type: functional, tissue-based; settings: Cavia porcellus
Ileum [11] = assay: Antihistaminic effect in guinea pig ileum assessed as inhibition of histamine-induced contraction at 34 uM; type: functional, tissue-based; settings: Cavia porcellus
Intestine = assay: Anticholinergic effect in rat intestine assessed as inhibition of acetylcholine-induced contraction; type: functional, tissue-based; settings: read-out: pA2 (converted)

C/C=C1/CN(C)C[C@@H]2Cc3c([nH]c4ccccc34)C(=O)C[C@@H]12
Activity (Ileum [1]): Active
inhibition at 1 µg/mL (Ileum [2]): 20%
Activity (Ileum [3]; Cavia porcellus): inactive
Kb (Ileum [4]): 0.282 µM

C/C=C1/C[N+](C)([O-])C[C@H]2Cc3c([nH]c4ccccc34)C(=O)C[C@@H]12 (stereo partly specified)
Activity (Ileum [5]): inactive

C/C=C1/CN(C)C[C@H]2Cc3c([nH]c4ccccc34)C(=O)C[C@@H]12 [METHUENINE]
Activity (Ileum [6]): Active
Activity (Ileum [7]): Active
Activity (Ileum [8]): Active
Activity (Ileum [1]): Active
pD2 (Ileum [9]): 5.13
Activity (Ileum [10]): Active
Activity (Ileum [11]): Active
pD2 (Ileum [3]): 5.1

COc1ccc(Cc2nccc3cc(OC)c(OC)cc23)cc1OC [PAPAVERINE]
Kb (Intestine): 15.8 µM
pD2 (Ileum [3]): 5.08

C/C=C1/CN(C)C[C@H]2C(=O)c3c([nH]c4ccccc34)C(=O)C[C@@H]12
Activity (Ileum [5]): inactive
